Entries after “also recorded” stand apart in the source; their conditions may differ.
Columns and labels:
immobilized GNAmaize = assay: SPR steady-state affinity of oligosaccharides with immobilized GNAmaize; set-up: species or system Zea mays; settings: apparent, N.D. = not detectable, binding detected = KD could not be determined
Description: (§1) The experimental data were fit using the steady-state affinity model (Biacore T100 Evaluation software 2.0.2) to determine the apparent KD-values.
(§2) The apparent KD was calculated by steady-state affinity analysis (Table 6).

immobilized GNA = immobilized GNA (Galanthus nivalis, UniProt P30617); assay: SPR steady-state affinity of oligosaccharides with immobilized GNA; settings: apparent, N.D. = not detectable, no binding curves
Description: as §1, §2

[1] = system: HIV-1 ID12 (clade A/E, R5); assay: p24 production in HIV-infected PBMC, clinical isolate ID12; type: cell-based; settings: inhibit p24 production of HIV-infected PBMC
Description: (§3) Buffy coat preparations from healthy donors were obtained from the Blood Bank in Leuven. Peripheral blood mononuclear cells (PBMC) were isolated by density gradient centrifugation over Lymphoprep (density = 1.077 g/ml; Nycomed, Oslo, Norway). The PBMC were transferred to RPMI 1640 medium supplemented with 10% fetal calf serum (BioWhittaker Europe) and 2 mM L-glutamine and then stimulated for 3 days with phytohemagglutinin (PHA; Murex Biotech Limited, Dartford, United Kingdom) at 2 μg/ml. […] Supernatant was collected at days 8 to 10, and HIV-1 core antigen in the culture supernatant was analyzed by the p24 core antigen enzyme-linked immunosorbent assay (ELISA; DuPont-Merck Pharmaceutical Co., Wilmington, Del.).

HIV-2(ROD) = assay: Antiretrovirus assay, HIV-2(ROD)-induced cytopathicity (syncytium formation) in CEM cell cultures; type: cell-based; settings: inhibit virus-induced cytopathicity in CEM cell cultures by 50%
Description: (§4) CEM cells (5 × 10^5 cells per ml) were suspended in fresh culture medium and infected with HIV-1 and HIV-2 at 100 times the CCID50 (50% cell culture infective doses) per ml of cell suspension, of which 100 μl was mixed with 100 μl of the appropriate dilutions of the test compounds, and further incubated at 37°C. After 4 to 5 days, syncytia formation was recorded microscopically in the cell cultures. The 50% effective concentration (EC50) corresponds to the compound concentration required to prevent syncytium formation by 50% in the virus-infected CEM cell cultures.

[2] = system: transmission of DC-SIGN-captured HIV-1(IIIB) to CD4+ T-lymphocyte C8166 cells; assay: Transmission of DC-SIGN-captured HIV-1(IIIB) to C8166 cells (syncytia formation); type: cell-based; settings: transmission of DC-SIGN-captured virions to CD4+ T cells (C8166)
Description: (§5) The experiment was performed as described previously. Briefly, B-lymphocyte DC-SIGN-expressing (Raji/DC-SIGN) cells were suspended in cell culture medium at 2 × 10^6 cells/ml. 100 μl of HIV-1(IIIB) (~250,000 pg p24) were added in the presence of 400 μl of serial dilutions of the test compounds. After 60 minutes of incubation, the cells were carefully washed 3 times to remove unbound virions and resuspended in 1 ml of cell culture medium. The captured HIV-1(IIIB) was quantified by a p24 Ag ELISA. From the Raji/DC-SIGN cell suspension, 200 μl were also added to the wells of a 48-well microtiter plate in the presence of 800 μl uninfected C8166 cells (2.5 × 10^5 cells/ml). These cocultures were further incubated at 37°C, and syncytia formation was evaluated microscopically after ~ 18 to 42 h, and viral p24 Ag determination in the culture supernatants was performed.
(§6) One hour later, free virus particles and the test compounds were carefully removed from the cell cultures by several washing steps.

HIV-1(BaL) (Clade B) = assay: p24 production in HIV-infected PBMC, BaL; type: cell-based; settings: inhibit p24 production of HIV-infected PBMC
Description: as §3

[3] = system: DC-SIGN-mediated capture of HIV-1(IIIB) by Raji/DC-SIGN cells; assay: Capture of HIV-1(IIIB) by Raji/DC-SIGN cells (p24 Ag ELISA); type: cell-based; settings: HIV-1(IIIB) capture by Raji/DC-SIGN cells
Description: as §5, §6

HIV-1(IIIB) = assay: Antiretrovirus assay, HIV-1(IIIB)-induced cytopathicity (syncytium formation) in CEM cell cultures; type: cell-based; settings: inhibit virus-induced cytopathicity in CEM cell cultures by 50%
Description: as §4

[4] = system: HIV-1 DJ259 (clade C, R5); assay: p24 production in HIV-infected PBMC, clinical isolate DJ259; type: cell-based; settings: inhibit p24 production of HIV-infected PBMC
Description: as §3

[5] = system: HIV-1 UG273 (clade A, R5); assay: p24 production in HIV-infected PBMC, clinical isolate UG273; type: cell-based; settings: inhibit p24 production of HIV-infected PBMC
Description: as §3

[6] = system: syncytia formation between HuT-78/HIV-1 and Sup-T1 cells; assay: Co-cultivation assay between Sup-T1 and persistently HIV-1-infected HuT-78 cells (syncytia formation); type: cell-based, Human; settings: inhibit syncytia formation between HuT-78/HIV-1 and Sup-T1 cells by 50%
Description: Persistently HIV-1(IIIB)-infected HuT-78 cells (designated HuT-78/HIV-1) were washed to remove cell-free virus from the culture medium, and 5 × 10^4 cells (50 μl) were transferred to 96-well microtiter plates. Next, a similar amount of Sup-T1 cells (50 μl) and appropriate concentrations of test compound (100 μl), were added to each well.

Sequence of immobilized GNA (P30617 24-128): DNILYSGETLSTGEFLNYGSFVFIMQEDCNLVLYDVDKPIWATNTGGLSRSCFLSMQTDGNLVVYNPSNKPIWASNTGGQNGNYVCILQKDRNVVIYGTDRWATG

Compound: OC[C@H]1O[C@H](O[C@@H]2[C@@H](O[C@@H]3C(O)O[C@H](CO)[C@@H](O)[C@@H]3O)O[C@H](CO)[C@@H](O)[C@@H]2O)[C@@H](O)[C@@H](O)[C@@H]1O (stereo partly drawn) [(α1,2-man)3]
- KD, immobilized GNAmaize (immobilized GNAmaize): did not bind
- Kd (immobilized GNA): > 1000 µM

Compound: OC[C@H]1O[C@H](O[C@H]2[C@H](O)[C@@H](CO)OC(O)[C@H]2O)[C@@H](O)[C@@H](O)[C@@H]1O (stereo partly drawn) [(α1,3-man)2]
- KD, immobilized GNAmaize (immobilized GNAmaize): did not bind
- KD, immobilized GNA (immobilized GNA): preferentially bind
- Kd (immobilized GNA): > 2000 µM

Compound: CC(=O)N[C@H]1[C@H](O[C@@H]2C(O)O[C@H](CO)[C@@H](O)[C@@H]2O)O[C@H](CO)[C@@H](O)[C@@H]1O (some centres unmarked) [GlcNAcβ1,2Man, GlcNAcß1,2Man]
- KD, immobilized GNAmaize (immobilized GNAmaize): binding detected^b
- KD, immobilized GNAmaize (immobilized GNAmaize; listed as GlcNAcß1,2Man): able to measurably bind
- KD, immobilized GNA (immobilized GNA): didn't bind; also recorded: not to GNA

Compound: CC(=O)N[C@H]1[C@H](O[C@H]2[C@H](O)[C@@H](NC(C)=O)C(O)O[C@@H]2CO)O[C@H](CO)[C@@H](O[C@@H]2O[C@H](CO[C@H]3O[C@H](CO)[C@@H](O)[C@H](O)[C@@H]3O[C@@H]3O[C@H](CO)[C@@H](O)[C@H](O)[C@H]3NC(C)=O)[C@@H](O)[C@H](O[C@H]3O[C@H](CO)[C@@H](O)[C@H](O)[C@@H]3O[C@@H]3O[C@H](CO)[C@@H](O)[C@H](O)[C@H]3NC(C)=O)[C@@H]2O)[C@@H]1O (some centres unmarked) [GlcNAcβ1,2Manα1,3(GlcNAcβ1,2Manα1,6)Manβ1,4GlcNAcβ1,4GlcNAc]
- KD, immobilized GNAmaize (immobilized GNAmaize): binding detected^b
- KD, immobilized GNAmaize (immobilized GNAmaize; listed as GlcNAcβ1,2Manα1,3(GlcNAcβ1,2Manα1,6) Manβ1,4GlcNAcβ1,4GlcNAc): able to bind
- KD, immobilized GNA (immobilized GNA): not to GNA

Compound: GNA: mannose-specific tetrameric plant lectin of 50 kDa from snowdrop (Galanthus nivalis) bulbs
- EC50 Clade A/E, ID12 [1]: 0.38 µM
- EC50 (HIV-2(ROD)): 0.008 ± 0.001 µM
- EC50 [2]: 0.006 ± 0.005 µM
- EC50 (HIV-1(BaL) (Clade B)): 0.13 µM
- EC50 [3]: 0.04 ± 0.01 µM
- EC50 (HIV-1(IIIB)): 0.007 ± 0.001 µM
- EC50 [4]: 0.84 µM
- EC50 [5]: 0.046 µM
- EC50 [6]: 0.062 ± 0.064 µM

Reference: publication PMC3048538, “Differences in the mannose oligomer specificities of the closely related lectins from Galanthus nivalis and Zea mays strongly determine their eventual anti-HIV activity” (Retrovirology, 2011)
